Literature values, collected in patent US20100209356A1, “CONTRAST AGENTS” (priority 2007, published 2010).

Conditions: high risk patients; iodixanol compared with a low-osmolar, non-ionic contrast medium

- nephropathy induced by contrast medium: less likely to develop
Structure (SMILES): CC(=O)N(CC(O)CN(C(C)=O)c1c(I)c(C(=O)NCC(O)CO)c(I)c(C(=O)NCC(O)CO)c1I)c1c(I)c(C(=O)NCC(O)CO)c(I)c(C(=O)NCC(O)CO)c1I (stereo not shown) [iodixanol]
